From the supplement of paper PMC11451515

Key:
Details in all cases: 48 h
NOMO1 [1] = test: cell viability relative to DMSO control; higher = less cytotoxic
In short: (§1)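 NOMO1, SEM and P12-Ichikawa leukemia cells spent at least four passages adapting to each medium before use. They were seeded at 500 cells/well (NOMO1, SEM) or 1000 cells/well (P12-Ichikawa) in 5 μl in 1536-well plates and pin-dosed with library compounds in DMSO at 11 threefold steps from 47 μM down to 0.79 nM. After 48 h at 37°C, CellTiter-Glo One luminescence was read. Viability is reported as a percentage of the DMSO wells on each plate, with cell-free wells as background.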

P12-Ichikawa [2] = test: as above
In short: as §1

SEM cells [3] = test: as above
In short: as §1

NOMO1 [4] = test: AUC of viability dose-response curve (% viability x log10 dose units); higher = less sensitive
In short: (§2)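 Library compounds in DMSO were applied for 48 h at 37°C at 11 threefold doses (47 μM to 0.79 nM) to medium-adapted leukemia cells in 1536-well plates holding 500 or 1000 cells/well. Luminescence from CellTiter-Glo One was normalised plate by plate against DMSO and cell-free wells. Area under the curve came from trapezoidal integration of a log-logistic fit, after scaling curves that rose above full viability and discarding those that failed quality control. The fit had four parameters and used log10 doses.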

P12-Ichikawa [5] = test: as above
In short: as §2

SEM cells [6] = test: as above
In short: as §2

CNCC[C@H](Oc1cccc2ccccc12)c1cccs1
cell viability [%]
Details	NOMO1 [1]	P12-Ichikawa [2]	SEM cells [3]
HPLM + 10% dialyzed FBS, 0.000781 µM	117	109	121
HPLM + 10% dialyzed FBS, 0.00234 µM	119	116	128
HPLM + 10% dialyzed FBS, 0.00702 µM	145	111	110
HPLM + 10% dialyzed FBS, 0.0211 µM	116	113	122
HPLM + 10% dialyzed FBS, 0.0632 µM	134	109	121
HPLM + 10% dialyzed FBS, 0.19 µM	117	96.2	130
HPLM + 10% dialyzed FBS, 0.569 µM	130	112	111
HPLM + 10% dialyzed FBS, 1.71 µM	123	108	99.4
HPLM + 10% dialyzed FBS, 5.12 µM	90.8	105	110
HPLM + 10% dialyzed FBS, 15.4 µM	41.5	95.8	84.2
HPLM + 10% dialyzed FBS, 46.1 µM	26.5	25.1	46.4
RPMI 5 mM glucose + 10% FBS, 0.000781 µM	108	126	124
RPMI 5 mM glucose + 10% FBS, 0.00234 µM	122	119	117
RPMI 5 mM glucose + 10% FBS, 0.00702 µM	122	124	119
RPMI 5 mM glucose + 10% FBS, 0.0211 µM	116	120	116
RPMI 5 mM glucose + 10% FBS, 0.0632 µM	120	121	110
RPMI 5 mM glucose + 10% FBS, 0.19 µM	112	119	136
RPMI 5 mM glucose + 10% FBS, 0.569 µM	124	112	111
RPMI 5 mM glucose + 10% FBS, 1.71 µM	110	118	107
RPMI 5 mM glucose + 10% FBS, 5.12 µM	116	119	86
RPMI 5 mM glucose + 10% FBS, 15.4 µM	44.5	111	96.2
RPMI 5 mM glucose + 10% FBS, 46.1 µM	26.3	81	24
RPMI 5 mM glucose + 10% dialyzed FBS, 0.000781 µM	105	107	–
RPMI 5 mM glucose + 10% dialyzed FBS, 0.00234 µM	127	115	–
RPMI 5 mM glucose + 10% dialyzed FBS, 0.00702 µM	116	112	–
RPMI 5 mM glucose + 10% dialyzed FBS, 0.0211 µM	119	119	–
RPMI 5 mM glucose + 10% dialyzed FBS, 0.0632 µM	137	105	–
RPMI 5 mM glucose + 10% dialyzed FBS, 0.19 µM	113	116	–
RPMI 5 mM glucose + 10% dialyzed FBS, 0.569 µM	112	111	–
RPMI 5 mM glucose + 10% dialyzed FBS, 1.71 µM	114	105	–
RPMI 5 mM glucose + 10% dialyzed FBS, 5.12 µM	121	105	–
RPMI 5 mM glucose + 10% dialyzed FBS, 15.4 µM	46.7	98.6	–
RPMI 5 mM glucose + 10% dialyzed FBS, 46.1 µM	27.4	58	–

AUC of viability dose-response curve
Details	NOMO1 [4]	P12-Ichikawa [5]	SEM cells [6]
HPLM + 10% dialyzed FBS	411	453	437
RPMI 5 mM glucose + 10% FBS	429	466	437
RPMI 5 mM glucose + 10% dialyzed FBS	430	459	412

CCCCCCCCCCCCCC(=O)N[C@H](CO)[C@H](O)c1ccc([N+](=O)[O-])cc1
cell viability [%]
Details	NOMO1 [1]	P12-Ichikawa [2]	SEM cells [3]
HPLM + 10% dialyzed FBS, 0.000781 µM	92.5	99.4	97.4
HPLM + 10% dialyzed FBS, 0.00234 µM	98.8	90.6	81.4
HPLM + 10% dialyzed FBS, 0.00702 µM	99.1	100	89.5
HPLM + 10% dialyzed FBS, 0.0211 µM	105	104	95.4
HPLM + 10% dialyzed FBS, 0.0632 µM	105	102	98.9
HPLM + 10% dialyzed FBS, 0.19 µM	90.8	102	65.1
HPLM + 10% dialyzed FBS, 0.569 µM	108	105	79.7
HPLM + 10% dialyzed FBS, 1.71 µM	49.9	79.7	39.8
HPLM + 10% dialyzed FBS, 5.12 µM	16.8	40.3	13.8
HPLM + 10% dialyzed FBS, 15.4 µM	3.54	2.44	3.54
HPLM + 10% dialyzed FBS, 46.1 µM	2.02	1.98	2.38
RPMI 5 mM glucose + 10% FBS, 0.000781 µM	91.2	96.9	99.6
RPMI 5 mM glucose + 10% FBS, 0.00234 µM	82.8	94.2	76.1
RPMI 5 mM glucose + 10% FBS, 0.00702 µM	99.6	95.5	89.1
RPMI 5 mM glucose + 10% FBS, 0.0211 µM	90.2	92.7	103
RPMI 5 mM glucose + 10% FBS, 0.0632 µM	98.2	102	95.5
RPMI 5 mM glucose + 10% FBS, 0.19 µM	91.3	84.9	55.4
RPMI 5 mM glucose + 10% FBS, 0.569 µM	93	89.1	66.5
RPMI 5 mM glucose + 10% FBS, 1.71 µM	51	55.1	25.1
RPMI 5 mM glucose + 10% FBS, 5.12 µM	21.5	21.1	9.49
RPMI 5 mM glucose + 10% FBS, 15.4 µM	3.33	3.47	3.9
RPMI 5 mM glucose + 10% FBS, 46.1 µM	2.43	1.51	2.41
RPMI 5 mM glucose + 10% dialyzed FBS, 0.000781 µM	83.2	89.4	87.3
RPMI 5 mM glucose + 10% dialyzed FBS, 0.00234 µM	95	81.5	81.9
RPMI 5 mM glucose + 10% dialyzed FBS, 0.00702 µM	95.7	90.9	85.2
RPMI 5 mM glucose + 10% dialyzed FBS, 0.0211 µM	90.6	94	94.3
RPMI 5 mM glucose + 10% dialyzed FBS, 0.0632 µM	92.2	94.8	93.1
RPMI 5 mM glucose + 10% dialyzed FBS, 0.19 µM	93	85.8	55.2
RPMI 5 mM glucose + 10% dialyzed FBS, 0.569 µM	94.1	93.4	83
RPMI 5 mM glucose + 10% dialyzed FBS, 1.71 µM	59.4	52	36
RPMI 5 mM glucose + 10% dialyzed FBS, 5.12 µM	23.2	24.6	8.3
RPMI 5 mM glucose + 10% dialyzed FBS, 15.4 µM	4.12	4.09	4.49
RPMI 5 mM glucose + 10% dialyzed FBS, 46.1 µM	2.14	2.4	2.85

AUC of viability dose-response curve
Details	NOMO1 [4]	P12-Ichikawa [5]	SEM cells [6]
HPLM + 10% dialyzed FBS	342	369	296
RPMI 5 mM glucose + 10% FBS	323	328	276
RPMI 5 mM glucose + 10% dialyzed FBS	327	318	280
